Key:
Type in all cases: cell-based
[1] = biological target: T1, human PPAR β/δ (Homo sapiens, UniProt Q03181); experiment: Human PPAR β/δ reporter assay (luciferase, Indigo Biosciences kit); settings: antagonist mode, agonist at ~EC80; read-out: PPARδ Luciferase IC50
T1 construct: host or cells: engineered reporter cells (analogous to the PPARα kit)
T1 sequence (Q03181 1-441): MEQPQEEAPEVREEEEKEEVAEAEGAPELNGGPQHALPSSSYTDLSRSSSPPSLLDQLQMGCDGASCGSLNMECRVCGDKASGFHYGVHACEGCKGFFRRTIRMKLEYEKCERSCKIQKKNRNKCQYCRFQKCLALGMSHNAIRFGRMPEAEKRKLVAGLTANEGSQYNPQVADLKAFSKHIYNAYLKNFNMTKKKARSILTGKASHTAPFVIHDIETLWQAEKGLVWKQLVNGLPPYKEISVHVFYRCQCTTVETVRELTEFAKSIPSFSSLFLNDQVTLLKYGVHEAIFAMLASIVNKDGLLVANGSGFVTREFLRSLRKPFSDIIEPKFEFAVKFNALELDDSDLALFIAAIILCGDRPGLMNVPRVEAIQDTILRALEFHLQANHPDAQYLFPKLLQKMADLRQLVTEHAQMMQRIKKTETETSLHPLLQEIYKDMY
Method: (§1) Target Selectivity Assays
(§2) To determine species selectivity, a Mouse PPARα Reporter Assay System was used (Indigo Biosciences, Cat. #M00111). Activity of test compounds to antagonize or agonize other isoforms of human PPAR, for example β/δ and γ, were assessed using the corresponding kits from Indigo Biosciences (Cat. #IB00121 and #IB00101, respectively). In addition to PPAR activity, compounds were also screened for activity against other nuclear hormone receptors including Estrogen Receptor β, Glucocorticoid Receptor and Thyroid Receptor β using commercially available kits (Indigo Biosciences, Cat. #IB00411, IB00201 and IB01101, respectively). Each assay system from Indigo Biosciences uses technology analogous to the human PPARα kit, with the variance being that the cells used for each assay were engineered to over-express the receptor of interest. In addition, the appropriate receptor agonist (included with each kit) was used at ˜EC80 for assays in which antagonist potency was being assessed.

[2] = biological target: T2, human PPAR γ (Homo sapiens, UniProt P37231); experiment: Human PPARγ reporter assay (Indigo Biosciences kit); settings: antagonist mode, agonist at ~EC80; read-out: PPARγ
T2 sequence (P37231 1-505): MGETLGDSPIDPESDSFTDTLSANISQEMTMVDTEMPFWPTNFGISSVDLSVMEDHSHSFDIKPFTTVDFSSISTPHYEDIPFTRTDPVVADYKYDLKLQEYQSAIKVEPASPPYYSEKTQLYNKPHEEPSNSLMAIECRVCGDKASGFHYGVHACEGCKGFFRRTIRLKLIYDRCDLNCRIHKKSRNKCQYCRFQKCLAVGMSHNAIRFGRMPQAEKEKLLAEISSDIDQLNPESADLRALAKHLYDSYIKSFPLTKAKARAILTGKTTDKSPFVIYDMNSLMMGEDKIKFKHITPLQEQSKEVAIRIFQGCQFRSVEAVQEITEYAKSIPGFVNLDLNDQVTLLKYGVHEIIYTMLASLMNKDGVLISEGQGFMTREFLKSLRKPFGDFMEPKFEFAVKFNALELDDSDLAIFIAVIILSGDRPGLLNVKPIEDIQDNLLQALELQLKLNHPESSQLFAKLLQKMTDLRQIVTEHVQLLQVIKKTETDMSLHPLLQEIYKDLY
Method: as §1, §2

[3] = biological target: T3, Human PPARα (Homo sapiens, UniProt Q07869); experiment: Human PPARα Reporter Assay (luciferase, Indigo Biosciences); settings: antagonist mode, reporter cells, overnight incubation
T3 construct: host or cells: proprietary non-human mammalian cells
T3 sequence (Q07869 1-468): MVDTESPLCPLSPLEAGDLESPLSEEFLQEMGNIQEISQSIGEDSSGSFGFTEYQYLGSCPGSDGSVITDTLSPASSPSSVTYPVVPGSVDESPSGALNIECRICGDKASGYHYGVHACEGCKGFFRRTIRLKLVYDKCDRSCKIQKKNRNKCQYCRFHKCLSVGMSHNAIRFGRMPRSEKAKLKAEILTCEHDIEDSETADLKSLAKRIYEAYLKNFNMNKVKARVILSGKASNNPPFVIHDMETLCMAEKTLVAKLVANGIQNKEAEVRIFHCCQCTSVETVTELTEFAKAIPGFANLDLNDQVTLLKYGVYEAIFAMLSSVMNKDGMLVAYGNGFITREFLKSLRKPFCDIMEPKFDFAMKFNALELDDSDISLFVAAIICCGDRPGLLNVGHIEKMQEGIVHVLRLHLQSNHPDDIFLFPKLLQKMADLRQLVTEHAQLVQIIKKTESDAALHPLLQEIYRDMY
Method: Human PPARα Reporter Assay The screening of test compounds for agonist or antagonist activities against human PPARα receptors was performed using a commercial kit, Human PPARα Reporter Assay System (Indigo Biosciences, Cat. #IB00111). This nuclear receptor assay system utilizes proprietary non-human mammalian cells engineered to provide constitutive, high-level expression of Human PPARα. Because these cells incorporate a PPARα-responsive luciferase reporter gene, quantifying expressed luciferase activity provides a sensitive surrogate measure of PPARα activity in the treated cells. The primary application of this reporter assay system is in the screening of test samples to quantify any functional activity, either agonist or antagonist, that they may exert against human PPARα. […] Briefly, reporter cells are dispensed into wells of the assay plate and then immediately dosed with test compounds. Following an overnight incubation, the treatment media is discarded and Luciferase Detection Reagent (LDR) is added. The intensity of light emission from the ensuing luciferase reaction provides a sensitive measure that is directly proportional to the relative level of PPARα activation in the reporter cells.

Row | SMILES | IC50 [1] [nM] | IC50 [2] [nM] | IC50 [3] [nM]
1 | CCOc1ccc(-c2ccc(CCCc3nn(-c4ccc(C(C)C)cc4)c(=O)n3-c3ccccc3Cl)cc2)cc1CC(=O)O [Example 27, 2-(4′-(3-(4-(2-chlorophenyl)-1-(4-isopropylphenyl)-5-oxo-4,5-dihydro-1H-1,2,4-triazol-3-yl)propyl)-4-ethoxy-[1,1′-biphenyl-]-3-yl)acetic acid] | 236 | 28900 | 28
2 | CCOc1ccc(-c2ccc(CCCc3nn(-c4ccc(C(C)(C)C)cc4)c(=O)n3-c3c(Cl)cccc3Cl)cc2)cc1CC(=O)O [Example 28] | 789 | 32900 | 165
3 | CCOc1ccc(-c2ccc(CCCc3nn(-c4ccc(C(F)(F)F)cc4)c(=O)n3-c3cc(F)ccc3F)cc2)cc1CC(=O)O [Example 22] | 61 | 44500 | 88
4 | CCOc1ccc(-c2cccc(CCCc3nn(-c4ccc(C(F)(F)F)cc4)c(=O)n3C(C)C)c2)cc1CC(=O)O [Example 31] | 742 | 56900 | 199

More lines, now with the values ahead:

Row | IC50 [1] [nM] | IC50 [2] [nM] | IC50 [3] [nM] | SMILES
5 | 485 | 30700 | 43 | CCCOc1ccc(-c2ccc(CCCc3nn(-c4ccc(C(F)(F)F)cc4)c(=O)n3C3CC3)cc2)cc1CC(=O)O [Example 17, 2-(4′-(3-(4-cyclopropyl-5-oxo-1-(4-(trifluoromethyl)phenyl)-4,5-dihydro-1H-1,2,4-triazol-3-yl)propyl)-4-propoxy-[1,1′-biphenyl-]-3-yl)acetic acid]
6 | 220 | 19400 | 324 | CCOc1ccc(-c2ccc(CCCc3nn(-c4ccc(C(F)(F)F)cc4)c(=O)n3C3CCCCC3C)cc2)cc1CC(=O)O (stereo not drawn) [Example 7]
7 | 67 | 55200 | 30 | CCOc1ccc(-c2ccc(CCCc3nn(-c4ccc(C(F)(F)F)cc4)c(=O)n3-c3cccc(F)c3)cc2)cc1CC(=O)O [Example 21]
8 | 154 | 18100 | 135 | CCOc1ccc(-c2ccc(CCCc3nn(-c4ccc(C(F)(F)F)cc4)c(=O)n3C3CCCC(C)C3)cc2)cc1CC(=O)O (stereo not drawn) [Example 6]
9 | 505 | 27100 | 29 | CCOc1ccc(-c2ccc(CCCc3nn(-c4ccc(OC(F)(F)F)cc4)c(=O)n3C3CCCCC3)cc2)cc1CC(=O)O [Example 8, 2-(4′-(3-(4-cyclohexyl-5-oxo-1-(4-(trifluoromethoxy)phenyl)-4,5-dihydro-1H-1,2,4-triazol-3-yl)propyl)-4-ethoxy-[1,1% biphenyl]-3-yl)acetic acid]

Reference: patent US9776976B2, “Triazolone compounds and uses thereof” (Inception 2, Inc., priority 2013, dated 2017)
